From patent publication US10093683B2, “Factor XIa inhibitors” (Merck Sharp & Dohme Corp., priority 2014, dated 2018)

Experiments:
human Factor XIa = human Factor XIa (Homo sapiens (Human), UniProt P03951); assay: Factor XIa Assay; type: biochemical; conditions: purified human Factor XIa 40 pM, Z-Gly-Pro-Arg-AFC 100 μM, pH 7.4; read-out: FXIa Ki
Summary of the method: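 Ki derived from the dependence of Vo/Vi on inhibitor concentration under a competitive-inhibition model, after pre-equilibration of enzyme and inhibitor. Reaction: 40 pM human FXIa, 100 μM Z-Gly-Pro-Arg-AFC, HEPES 50 mM pH 7.4 with NaCl, CaCl2 and PEG 8000; run at room temperature or 37° C.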

Human plasma kallikrein = Human plasma kallikrein (Homo sapiens (Human), UniProt P03952); assay: Kallikrein Assay; type: biochemical; conditions: purified Human plasma kallikrein 0.5 nM, Acetyl-K-P-R-AFC, pH 7.4; Ki from IC50 by Cheng Prusoff
Sequence of Human plasma kallikrein (P03952 391-638): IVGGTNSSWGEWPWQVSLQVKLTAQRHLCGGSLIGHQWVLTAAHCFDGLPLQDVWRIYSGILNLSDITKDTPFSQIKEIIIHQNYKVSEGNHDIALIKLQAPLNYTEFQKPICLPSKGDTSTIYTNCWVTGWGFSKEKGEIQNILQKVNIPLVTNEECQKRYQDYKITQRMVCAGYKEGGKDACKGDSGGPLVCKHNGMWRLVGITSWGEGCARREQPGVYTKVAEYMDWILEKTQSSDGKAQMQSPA
Sequence of Human plasma kallikrein (P03952 20-390 partner): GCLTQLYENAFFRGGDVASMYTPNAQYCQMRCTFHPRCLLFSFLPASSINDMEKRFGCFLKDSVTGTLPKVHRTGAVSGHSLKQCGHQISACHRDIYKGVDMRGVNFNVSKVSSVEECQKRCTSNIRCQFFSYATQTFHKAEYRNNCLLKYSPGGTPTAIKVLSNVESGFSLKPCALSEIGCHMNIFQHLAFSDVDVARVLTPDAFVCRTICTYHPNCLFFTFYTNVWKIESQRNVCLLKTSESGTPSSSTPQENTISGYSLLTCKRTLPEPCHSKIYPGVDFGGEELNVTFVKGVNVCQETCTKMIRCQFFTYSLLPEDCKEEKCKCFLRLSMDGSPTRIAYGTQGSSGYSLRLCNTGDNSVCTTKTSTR
Protocol: The effectiveness of a compound of the present invention as an inhibitor of Kallikrein can be determined using a relevant purified serine protease, and an appropriate synthetic substrate. The rate of hydrolysis of the chromogenic or fluorogenic substrate by the relevant serine protease was measured both in the absence and presence of compounds of the present invention. Assays were conducted at room temperature or at 37° C. […] A decrease in the rate of fluorescence change in the presence of inhibitor is indicative of enzyme inhibition. Such methods are known to one skilled in the art. The results of this assay are expressed as the inhibitory constant, Ki.
Kallikrein determinations were made in 50 mM HEPES buffer at pH 7.4 containing 150 mM NaCl, 5 mM CaCl2, and 0.1% PEG 8000 (polyethylene glycol; Fisher Scientific). Determinations were made using purified Human plasma kallikrein at a final concentration of 0.5 nM (Enzyme Research Laboratories) and the synthetic substrate, Acetyl-K-P-R-AFC (Sigma #C6608) at a concentration of […].
Times required to achieve equilibration between enzyme and inhibitor were determined in control experiments. The reactions were performed under linear progress curve conditions and fluorescence increase measured at 405 Ex/510 Em nm. […] IC50 was determined by inflection point from a four parameter logistic curve fit. Ki was calculated using the Cheng Prusoff equation, Ki=IC50/(1+([S]/Km)).

Sequence of human Factor XIa (P03951 388-625): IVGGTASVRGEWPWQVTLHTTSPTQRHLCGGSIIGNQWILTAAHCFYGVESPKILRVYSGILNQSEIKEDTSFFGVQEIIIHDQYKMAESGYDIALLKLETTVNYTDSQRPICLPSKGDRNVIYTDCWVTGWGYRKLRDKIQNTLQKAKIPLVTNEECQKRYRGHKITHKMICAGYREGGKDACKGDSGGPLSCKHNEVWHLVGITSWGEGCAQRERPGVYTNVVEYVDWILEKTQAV
Sequence of human Factor XIa (P03951 19-387 partner): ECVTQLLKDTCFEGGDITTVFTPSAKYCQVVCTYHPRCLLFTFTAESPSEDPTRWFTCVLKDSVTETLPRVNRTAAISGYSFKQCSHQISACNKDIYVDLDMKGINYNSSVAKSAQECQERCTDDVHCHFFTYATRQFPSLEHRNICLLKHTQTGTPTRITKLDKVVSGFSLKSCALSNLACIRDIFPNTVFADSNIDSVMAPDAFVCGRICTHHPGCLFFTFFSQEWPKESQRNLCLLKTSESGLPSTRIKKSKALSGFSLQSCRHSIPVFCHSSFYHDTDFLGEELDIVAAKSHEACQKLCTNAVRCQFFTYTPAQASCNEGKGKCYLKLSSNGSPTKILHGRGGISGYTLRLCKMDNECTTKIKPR

SMILES	Ki (human Factor XIa)	Ki (Human plasma kallikrein)
COC(=O)Nc1ccc(C(=O)N[C@@H](Cc2ccccc2)C(=O)N2CCC[C@@]3(C2)OC(=O)Nc2ccc(Cl)cc23)cc1 [Example 3b, methyl (4-(((S)-1-((R)-6-chloro-2-oxo-1,2-dihydrospiro[benzo[d][1,3]oxazine-4,3′-piperidin]-1′-yl)-1-oxo-3-phenylpropan-2-yl)carbamoyl)phenyl)carbamate]	1.5 nM	1.55 nM
COC(=O)Nc1ccc(C(=O)N[C@@H](Cc2ccccc2)C(=O)N2CC[C@@]3(C2)OC(=O)Nc2ccc(Cl)cc23)cc1 [Example 6, methyl (4-(((S)-1-((R)-6-chloro-2-oxo-1,2-dihydrospiro[benzo[d][1,3]oxazine-4,3′-pyrrolidin]-1′-yl)-1-oxo-3-phenylpropan-2-yl)carbamoyl)phenyl)carbamate]	4.7 nM	4.02 nM
COC(=O)Nc1ccc(C(=O)N[C@@H](Cc2ccccc2)C(=O)N2CC[C@@]3(C2)OC(=O)Nc2ccc(Cl)c(F)c23)cc1 [Example 7, methyl (4-(((S)-1-((R)-6-chloro-5-fluoro-2-oxo-1,2-dihydrospiro[benzo[d][1,3]oxazine-4,3′-pyrrolidin]-1′-yl)-1-oxo-3-phenylpropan-2-yl)carbamoyl)phenyl)carbamate]	4.44 nM	3.51 nM
COC(=O)Nc1ccc(C(=O)N[C@@H](Cc2ccccc2)C(=O)N2CCC[C@@]3(C2)OC(=O)Nc2ccc(F)cc23)cc1 [Example 8a, methyl (4-(((S)-1-((R)-6-fluoro-2-oxo-1,2-dihydrospiro[benzo[d][1,3]oxazine-4,3′-piperidin]-1′-yl)-1-oxo-3-phenylpropan-2-yl)carbamoyl)phenyl)carbamate]	12.8 nM	9.78 nM
COC(=O)Nc1ccc(C(=O)N[C@@H](Cc2ccccc2)C(=O)N2CCC[C@@]3(C2)OC(=O)Nc2ccc(OC)cc23)cc1 [Example 9, methyl (4-(((S)-1-((R)-6-methoxy-2-oxo-1,2-dihydrospiro[benzo[d][1,3]oxazine-4,3′-piperidin]-1′-yl)-1-oxo-3-phenylpropan-2-yl)carbamoyl)phenyl)carbamate]	2 nM	2.6 nM
COC(=O)Nc1ccc(C(=O)N[C@@H](Cc2ccccc2)C(=O)N2CCCC3(C2)OC(=O)Nc2ccc(Cl)c(F)c23)cc1 (stereo partly drawn) [Example 13, methyl (4-(((2S)-1-(6-chloro-5-fluoro-2-oxo-1,2-dihydrospiro[benzo[d][1,3]oxazine-4,3′-piperidin]-1′-yl)-1-oxo-3-phenylpropan-2-yl)carbamoyl)phenyl)carbamate]	1.8 nM	1.4 nM
COC(=O)Nc1ccc(C(=O)N[C@@H](Cc2ccccc2)C(=O)N2CC[C@@]3(C2)OC(=O)Nc2ccc(C)cc23)cc1 [Example 14b, methyl (4-(((S)-1-((R)-6-methyl-2-oxo-1,2-dihydrospiro[benzo[d][1,3]oxazine-4,3′-pyrrolidin]-1′-yl)-1-oxo-3-phenylpropan-2-yl)carbamoyl)phenyl)carbamate]	9.5 nM	47.8 nM
COC(=O)Nc1ccc(C(=O)N[C@@H](Cc2ccccc2)C(=O)N2CCC[C@@]3(C2)OC(=O)Nc2ccc(C)cc23)cc1 [Example 15, methyl (4-(((S)-1-((R)-6-methyl-2-oxo-1,2-dihydrospiro[benzo[d][1,3]oxazine-4,3′-piperidin]-1′-yl)-1-oxo-3-phenylpropan-2-yl)carbamoyl)phenyl)carbamate]	5.5 nM	2.8 nM
COC(=O)Nc1ccc(C(=O)N[C@@H](Cc2ccccc2)C(=O)N2CCC[C@@]3(C2)OC(=O)Nc2ccc(C)c(F)c23)cc1 [Example 16, methyl (4-(((S)-1-((R)-5-fluoro-6-methyl-2-oxo-1,2-dihydrospiro[benzo[d][1,3]oxazine-4,3′-piperidin]-1′-yl)-1-oxo-3-phenylpropan-2-yl)carbamoyl)phenyl)carbamate]	3.85 nM	1.36 nM
COC(=O)Nc1ccc(C(=O)N[C@@H](Cc2ccc(F)cc2)C(=O)N2CC[C@@]3(C2)OC(=O)Nc2ccc(Cl)cc23)cc1 [Example 22, methyl (4-(((S)-1-((R)-6-chloro-2-oxo-1,2-dihydrospiro[benzo[d][1,3]oxazine-4,3′-pyrrolidin]-1′-yl)-3-(4-fluorophenyl)-1-oxopropan-2-yl)carbamoyl)phenyl)carbamate]	5.3 nM	21.9 nM
O=C(Nc1ccc(C(=O)N[C@@H](Cc2cccc(F)c2)C(=O)N2CCC[C@@]3(C2)OC(=O)Nc2ccc(Cl)c(F)c23)cc1)OCCP(=O)(O)O [Example 271, (2-(((4-(((S)-1-((R)-6-chloro-5-fluoro-2-oxo-1,2-dihydrospiro[benzo[d][1,3]oxazine-4,3′-piperidin]-1′-yl)-3-(3-fluorophenyl)-1-oxopropan-2-yl)carbamoyl)phenyl)carbamoyl)oxy)ethyl)phosphonic acid]	–	0.6 nM
Nc1nc2ccc(C(=O)N3C[C@H](Cc4ccccc4)C[C@H]3C(=O)N3CC[C@@]4(C3)OC(=O)Nc3ccc(Cl)cc34)cc2s1 [Example 292, (R)-1′-((2S,4R)-1-(2-aminobenzo[d]thiazole-6-carbonyl)-4-benzylpyrrolidine-2-carbonyl)-6-chlorospiro[benzo[d][1,3]oxazine-4,3′-pyrrolidin]-2(1H)-one]	1870 nM	–
O=C1Nc2ccc(Cl)cc2[C@@]2(CCN(C(=O)[C@H](Cc3ccccc3)Nc3ncc(C(=O)O)cc3F)C2)O1 [Example 294, 6-(((S)-1-((R)-6-chloro-2-oxo-1,2-dihydrospiro[benzo[d][1,3]oxazine-4,3′-pyrrolidin]-1′-yl)-1-oxo-3-phenylpropan-2-yl)amino)-5-fluoronicotinic acid]	10000 nM	–
O=C1Nc2ccc(Cl)cc2[C@@]2(CCCN(C(=O)[C@H](Cc3ccccc3)Nc3ccc(-c4ccc(O)nc4)cn3)C2)O1 [Example 295, (R)-6-chloro-1′-((6′-hydroxy-[3,3′-bipyridin]-6-yl)-L-phenylalanyl)spiro[benzo[d][1,3]oxazine-4,3′-piperidin]-2(1H)-one]	10000 nM	–
O=C1Nc2ccc(Cl)cc2[C@@]2(CCCN(C(=O)[C@H](Cc3ccccc3)Nc3ccc(-c4cc[nH]n4)cn3)C2)O1 [Example 296, (R)-1′-((5-(1H-pyrazol-3-yl)pyridin-2-yl)-L-phenylalanyl)-6-chlorospiro[benzo[d][1,3]oxazine-4,3′-piperidin]-2(1H)-one]	10000 nM	–
O=C1Nc2ccc(Cl)cc2[C@@]2(CCCN(C(=O)[C@H](Cc3ccccc3)Nc3ccc(-c4cccc(C(=O)O)c4)cn3)C2)O1 [Example 297, 3-(6-(((S)-1-((R)-6-chloro-2-oxo-1,2-dihydrospiro[benzo[d][1,3]oxazine-4,3′-piperidin]-1′-yl)-1-oxo-3-phenylpropan-2-yl)amino)pyridin-3-yl)benzoic acid]	10000 nM	–

Now from value to compound:

Ki (human Factor XIa)	Ki (Human plasma kallikrein)	SMILES
11.6 nM	2.9 nM	COC(=O)Nc1ccc(C(=O)N[C@@H](CC2CC2(F)F)C(=O)N2CCC[C@@]3(C2)OC(=O)Nc2ccc(Cl)c(F)c23)cc1 (single isomer, unassigned) [Example 67A]
7.88 nM	1.8 nM	COC(=O)Nc1ccc(C(=O)N[C@@H](CC2CC2(F)F)C(=O)N2CCC[C@@]3(C2)OC(=O)Nc2ccc(Cl)c(F)c23)cc1 (single isomer, unassigned) [Example 67B]
7.51 nM	4.78 nM	COC(=O)Nc1ccc(C(=O)NC(C[C@@H]2CCCO2)C(=O)N2CCC[C@@]3(C2)OC(=O)Nc2ccc(Cl)c(F)c23)cc1 (single isomer, unassigned) [Example 116A]
18.7 nM	10.6 nM	COC(=O)Nc1ccc(C(=O)NC(C[C@H]2CCCO2)C(=O)N2CCC[C@@]3(C2)OC(=O)Nc2ccc(Cl)c(F)c23)cc1 (single isomer, unassigned) [Example 117A]
–	0.6 nM	COC(=O)Nc1ccc(C(=O)N[C@@H](CC2(OC)CC2)C(=O)N2CCC[C@@]3(C2)OC(=O)Nc2ccc(Cl)c(F)c23)cc1 [Example 115, methyl (4-(((S)-1-((R)-6-chloro-5-fluoro-2-oxo-1,2-dihydrospiro[benzo[d][1,3]oxazine-4,3′-piperidin]-1′-yl)-3-(1-methoxycyclopropyl)-1-oxopropan-2-yl)carbamoyl)phenyl)carbamate]
–	1.79 nM	COC(=O)Nc1ccc(C(=O)N[C@@H](C[C@H](C)OC)C(=O)N2CCC[C@@]3(C2)OC(=O)Nc2ccc(Cl)c(F)c23)cc1 [Example 118A, methyl (4-(((2S,4S)-1-((R)-6-chloro-5-fluoro-2-oxo-1,2-dihydrospiro[benzo[d][1,3]oxazine-4,3′-piperidin]-1′-yl)-4-methoxy-1-oxopentan-2-yl)carbamoyl)phenyl)carbamate]
–	1.06 nM	COC(=O)Nc1ccc(C(=O)N[C@@H](C[C@@H](C)OC)C(=O)N2CCC[C@@]3(C2)OC(=O)Nc2ccc(Cl)c(F)c23)cc1 [Example 118B, methyl (4-(((2S,4R)-1-((R)-6-chloro-5-fluoro-2-oxo-1,2-dihydrospiro[benzo[d][1,3]oxazine-4,3′-piperidin]-1′-yl)-4-methoxy-1-oxopentan-2-yl)carbamoyl)phenyl)carbamate]
